Measurements published in publication PMC9571290, “Preliminary Structure–Activity Relationship Study of the MMV Pathogen Box Compound MMV675968 (2,4-Diaminoquinazoline) Unveils Novel Inhibitors of Trypanosoma brucei brucei” (Molecules, 2022).
Where two headings read alike, the source gives them in different places.

Legend:
[1] = test system: trypanosome plasma membrane; assay: plasma membrane integrity (SYBR Green); format: cell-based, Trypanosoma brucei brucei; settings: IC99, IC90, IC50, IC10; up to 120 min
Experimental: The plasma membrane is the first barrier protecting the cell from the external environment and therefore might represent an important challenge for compounds to exert their inhibitory action. Thus, compounds 7 and 10 were assessed for their ability to induce alterations in cell integrity as previously described with a modification consisting of using an SYBR green assay. The principle of this assay is based on the fact that upon treatment with membrane disruptors, trypanosomes with compromised plasma become fluorescent as a result of SYBR green entry and fixation to the exposed DNA. Practically, in a 96-well microtiter plate, 90 µL of trypanosome suspension (2 × 10^6 cells/mL/well) was preincubated with SYBR Green (2X) (Sigma Aldrich) for 15 min at 37 °C and 5% CO2 in darkness. […] The plate was then incubated at 37 °C on a Magelan Infinite M200 multiwell plate reader (Tecan), and fluorescence was further recorded every 5 min for up to 120 min at λex = 485 and λem = 538 nm. […] The results are expressed as the mean ± SD of two experiments carried out in duplicate after deducting the background signal (wells containing HMI-9 medium) and then used to plot the fluorescence counts versus time (min) graph.

[2] = test system: bloodstream forms of Trypanosoma brucei brucei; assay: resazurin-based antitrypanosomal inhibition assay; format: cell-based; settings: Trypanosoma brucei
trypanosomes = assay: intracellular ROS production (DCFDA); format: cell-based, Trypanosoma brucei brucei; settings: 120 min; versus untreated parasites
Experimental: The production of ROS was detected using a 2′,7′–dichlorofluorescein diacetate (DCFDA) probe (Sigma–Aldrich) as described by Rea et al.. […] DCFDA (100 µL, 5 µM) was then added to the parasites, and incubation was pursued for 15 min at 37 °C. Hydrogen peroxide (H2O2 0.1% v/v) was used as a positive control for maximal ROS production, and wells with untreated parasites were included as a negative control. Of note, DCFDA is cleaved by ROS to produce fluorescent 2′,7′-dichlorofluorescein (DCF), of which the fluorescence intensity was measured at λex = 485 nm and λem = 520 nm. Data obtained from duplicate readouts were used to determine the ROS production percentage relative to the positive control (100% Production). % ROS production = (OD Test/OD control(H2O2)) × 100

[3] = test system: bloodstream form of Trypanosoma brucei brucei; assay: parasite-killing kinetics and cidal or static effect; format: cell-based; settings: for cidal or static effect after inhibitor removal: IC90 and IC99, removal at 4 h (10) or 24 h (7), subculture in inhibitor-free medium; for time to total inhibition of trypanosome growth: at IC99
Experimental: Thus, they were selected, and their effect at various concentrations was assessed on the proliferation rate of the bloodstream form of Trypanosoma brucei brucei using microscopic cell count. […] After specified exposure time intervals (0, 4, 8, 12, 24, 30, 36, 48, 60, 72 h), the content of each well was harvested and counted on a Neubauer hemacytometer to determine the number of mobile parasites. The obtained values were used to plot the growth curves as parasite density (cells/mL) versus incubation time using GraphPad Prism 8.0 software.
Therefore, the ability of parasites to recover post exposure to inhibitors 10 and 7 was further evaluated. […] After that, the cells were washed three times with fresh complete medium by centrifugation at 2500 rpm for 7 min. Cell pellets were thereafter resuspended in fresh complete culture medium in a 24-well plate and subcultured under the same conditions for 68 h for compound 10 and 48 h for compound 7 to achieve the complete parasite growth pattern. Thereafter, cells were enumerated using the Neubauer cell counter at each time point. The assay was performed in duplicate, and the mean cell counts were plotted […] against time using GraphPad Prism 8.0 to assess the cidal or static effect of inhibitors.

[4] = test system: bloodstream forms of Trypanosoma brucei brucei; assay: cellular DNA fragmentation ELISA (apoptosis or cytolysis); format: cell-based; settings: 4 h; for apoptotic DNA fragmentation: lysate, at IC50
Experimental: Basically, this assay tends to quantify apoptotic cell death by detection of […] dye-labeled DNA fragments in the cytoplasm of affected cells or to measure cell-mediated cytotoxicity by detection of dye-labeled DNA fragments released from damaged cells into the culture supernatant. […] BrdU-labeled parasites were harvested (by spinning at 2500 rpm for 7 min) followed by centrifugal washing using BrdU-free HMI-9 medium. […] The plate was then centrifuged at […] for 7 min, and the pellets were collected and kept at 4 °C until further use. For cytolysis measurement, the supernatants were added to a microplate coated with anti-DNA antibody to allow DNA capture from the test samples. The captured DNA fragments were subsequently denatured using microwave irradiation (LG NeoChef Charcoal Healthy Ovens) at 500 W for 5 min to separate DNA strands in view of displaying the BrdU. Thereafter, an anti-BrdU-antibody-POD (peroxidase) conjugate was added to detect the BrdU contained in the captured DNA fragments.
For apoptosis measurement, the cell pellets from each well were resuspended in 200 µL of the kit’s incubation buffer and incubated for 30 min. The lysed cells were centrifuged at […] for 10 min, and the supernatants were used as described above. Triton X-100 (Sigma Aldrich) was used as a positive control for both apoptosis and cell-mediated cytotoxicity. The absorbance values were proportionally correlated to the amount of DNA fragments in the treated cultures. Data are expressed as the mean ± SD of two independent experiments performed in duplicate and compared to the negative control (untreated parasites) at a significance level of p < 0.05.

[5] = Table 4, analogs of MMV675968, solid material, read-out: IC50 ± SD T. b. b.
[6] = Table 4, negative log of IC50 in molar, read-out: pIC50 T. b. b. (converted)

Row | SMILES | effect on plasma membrane permeability [1] | IC50 [2, 5] | IC50 [2, 6] | change in ROS production (trypanosomes) | cidal or static effect after inhibitor removal [3] | time to total inhibition of trypanosome growth [3] | induction of cell lysis (cytolysis) ([4]; culture supernatant) | apoptotic DNA fragmentation [4]
1 | COc1ccccc1NCc1ccc2nc(N)nc(N)c2c1 [Analog 7, 6-(((2-methoxyphenyl)amino)methyl)quinazoline-2,4-diamine] | no impairment or a rather mild effect | 60 ± 8 nM | 60.3 nM | no significant change | static effect | ≤ 24 h | did not exert any effect | did not exert any effect
2 | Nc1nc(N)c2cc(CNc3cc(Cl)ccc3Cl)ccc2n1 [Analog 10, 6-(((2,5-dichlorophenyl)amino)methyl)quinazoline-2,4-diamine] | no impairment or a rather mild effect | 45 ± 5 nM | 45.7 nM | no significant change | cidal effect | ≤ 4 h | – | significant inducing effect
